Measurements published in US20190255073A1, “ESTERS OF 3-POLYAMINE DERIVATIVES OF BILE ACIDS FOR THE TREATMENT OF INFECTIONS” (VIRBAC, priority 2016, published 2019).
Values after ≈ are worked out from the molar mass of the structure shown. Read-outs that look alike come from different tables or passages of the source.

What was measured:
E. faecalis ATCC29212 = assay: MIC determination by microplate dilution, E. faecalis human strain; type: cell-based, Enterococcus faecalis; details: Enterococcus faecalis, ATCC29212, Gram-positive, Mueller-Hinton medium, 24 h, 37° C.
Experimental: (§1) 1) Preparation of the Preculture
(§2) A negative control (2 mL of sterile culture medium)
(§3) A positive control (1940 μL of culture medium+40 μL of DMSO+20 μL of bacterial suspension) from a thawed biological strain (the biological strains are stored at −80° C. in glycerol).
(§4) The tubes were incubated at 37° C. for 24 hours at 100 rpm.
(§5) The microorganisms were handled under a type L2 laboratory fume cupboard and, before any handling, a UV cycle was programmed and only sterile material was used. […] The chemical compounds to be tested were prepared in a DMSO/methanol mixture (50/50) at a concentration of 5 mg/mL.
(§6) 2) Preparation of the Microplate for the Determination of the Minimum Inhibitory Concentration (MIC)
(§7) After 24 hours of incubation, a measurement of the optical density was taken using a spectrophotometer at 600 nm, collecting 100 μL of the bacterial suspension diluted in 900 μL of the sterile culture medium. This test required the use of a 96-well plate and the required volume of the microbial suspension to be seeded was calculated for an OD corresponding to a value equal to 0.01 in each well. In this plate, the first line corresponded to the negative control (195 μL of sterile culture medium in each well), the second line to the positive control (seeded culture medium supplemented with 2% of DMSO), the third line was loaded twice with bacterial suspension, 8 μL of test product were placed in each well. Thereafter, a 0.5 cascade dilution was performed from this line.
(§8) The first column served as inhibition control. A sterile filter was then placed on the microplate, allowing the passage of gases but not of contaminants. The microplate was incubated at 37° C. under a humid atmosphere for 24 hours.
(§9) NB: The medium used is Mueller-Hinton (MH) medium for bacteria. All the tests were performed in duplicate.
(§10) 4) Reading of the Results
(§11) After incubation, the filter was replaced with a transparent film, and an OD reading was then taken in an iEMS plate spectrophotometer at 620 nm. Calculation of the minimum inhibitory concentration (MIC) was performed.

E. coli ATCC28922 = assay: MIC determination by microplate dilution, E. coli human strain; type: cell-based, Escherichia coli; details: Escherichia coli, ATCC28922, Gram-negative, Mueller-Hinton medium, 24 h, 37° C.
Experimental: as §1, §2, §3, §4, §5, §6, §7, §8, §9, §10, §11

P. aeruginosa (1051575) [1] = assay: MIC determination by microplate dilution, P. aeruginosa animal strain; type: cell-based, Pseudomonas aeruginosa; details: Pseudomonas aeruginosa, Gram-negative, Mueller-Hinton medium, 24 h, 37° C.
Experimental: as §1, §2, §3, §4, §5, §6, §7, §8, §9, §10, §11

S. intermedius (1051997) = assay: MIC determination by microplate dilution, S. intermedius animal strain; type: cell-based, Staphylococcus intermedius; details: Staphylococcus intermedius, Gram-positive, Mueller-Hinton medium, 24 h, 37° C.
Experimental: as §1, §2, §3, §4, §5, §6, §7, §8, §9, §10, §11

S. aureus (340) = assay: MIC determination by microplate dilution, S. aureus animal strain; type: cell-based, Staphylococcus aureus; details: Staphylococcus aureus, Gram-positive, Mueller-Hinton medium, 24 h, 37° C.
Experimental: as §1, §2, §3, §4, §5, §6, §7, §8, §9, §10, §11

CHO-K1 cells = assay: WST1 cytotoxicity test on CHO-K1 cells; type: cell-based, Chinese hamster; details: Cricetulus griseus, read-out: IC50 (μg/mL) CHO
Experimental: Test WST1 was used to measure the cytotoxic activity of the products. This is a colorimetric test which makes it possible to measure the viability and the degree of cell proliferation. It is based on cleavage of the colorless tetrazolium salts WST-1 (4-[3-(4-iodophenyl)-2-(4-nitrophenyl)-2H-5-tetrazolio]-1,3-benzene disulfonate) with mitochondrial dehydrogenases to the yellow-colored formazan derivative, which may be quantified by spectrophotometry at 420-480 nm.
The WST1 test was performed on Chinese hamster ovary cells. The CHO-K1 cells (ATCC, USA) are kept in culture on McCoy's 5A medium supplemented with 10% fetal calf serum, 2 mM of L-glutamine and a mixture of penicillin-streptomycin (100 U/ml: 10 μg/mL). The culture is incubated at 37° C. under an atmosphere enriched in CO2 (5%), and subcultured every two days.
The cells are transferred into 96-well plates (25 000 cells/mL) in whole McCoy's 5A medium, and maintained for 24 hours at 37° C. under a humid atmosphere enriched in CO2 (5%). Increasing concentrations of test products are added to the wells in double tests and 8 growth controls containing the cells in the medium alone are included in each series of tests. After 24 hours at 37° C. (5% CO2), the culture medium is removed, the cells are rinsed in phosphate buffer (PBS) and 50 μL of PBS containing 10% of reagent WST1 are added to each well. After 20 minutes of incubation at 37° C., the results are read by spectrophotometry at 450 nm.
The results are expressed in dose-response relationships, modeled by nonlinear regression analysis using the TableCurve software. The 50% inhibitory concentration (IC50) represents the concentration of product that is capable of reducing the cell viability by 50%.

E. coli (1956) = assay: MIC determination by microplate dilution, E. coli animal strain; type: cell-based, Escherichia coli; details: Escherichia coli, Gram-negative, Mueller-Hinton medium, 24 h, 37° C.
Experimental: as §1, §2, §3, §4, §5, §6, §7, §8, §9, §10, §11

S. aureus ATCC25923 = assay: MIC determination by microplate dilution, S. aureus human strain; type: cell-based, Staphylococcus aureus; details: Staphylococcus aureus, ATCC25923, Gram-positive, Mueller-Hinton medium, 24 h, 37° C.
Experimental: as §1, §2, §3, §4, §5, §6, §7, §8, §9, §10, §11

P. aeruginosa ATCC27853 = assay: MIC determination by microplate dilution, P. aeruginosa human strain; type: cell-based, Pseudomonas aeruginosa; details: Pseudomonas aeruginosa, ATCC27853, Gram-negative, Mueller-Hinton medium, 24 h, 37° C.
Experimental: as §1, §2, §3, §4, §5, §6, §7, §8, §9, §10, §11

P. aeruginosa (1051575) [2] = assay: Potentiation of the doxycycline activity at 2 μg/mL; type: cell-based, Pseudomonas aeruginosa; details: in combination with doxycycline 2 μg/mL; 24 h, 37°
[3] = Table III, WST1, CHO-K1 cells, 24 h, concentration reducing cell viability by 50%

Row | SMILES | MIC (E. faecalis ATCC29212) | MIC (E. coli ATCC28922) | MIC (P. aeruginosa (1051575) [1]) | MIC (S. intermedius (1051997)) | MIC (S. aureus (340)) | IC50 (CHO-K1 cells; [3]) | MIC (E. coli (1956)) | MIC (S. aureus ATCC25923) | MIC (P. aeruginosa ATCC27853) | MIC - P. aeruginosa (1051575): content of compound of formula (I) to restore the doxycycline activity (at 2 μg/mL) (P. aeruginosa (1051575) [2]) | IC50 (CHO-K1 cells; CHO-K1, 24 h)
1 | COC(=O)CC[C@@H](C)[C@H]1CCC2C3C(C[C@H](O)[C@@]21C)[C@@]1(C)CC[C@H](NCCCN(C)CCCN)C[C@H]1C[C@H]3O (stereo partly drawn) [(33), methyl 3β-(bis(3-aminopropyl)methylamine)cholate] | 14 µg/mL (≈ 25.5 µM) | 27 µg/mL (≈ 49.1 µM) | 50 µg/mL (≈ 90.9 µM) | 14 µg/mL (≈ 25.5 µM) | 14 µg/mL (≈ 25.5 µM) | 126 µg/mL (≈ 229 µM) | 50 µg/mL (≈ 90.9 µM) | 14 µg/mL (≈ 25.5 µM) | 27 µg/mL (≈ 49.1 µM) | – | –
2 | CC(C)OC(=O)CC[C@@H](C)[C@H]1CCC2C3C(CC[C@@]21C)[C@@]1(C)CC[C@H](NCCCN(CCCN)CCCN)CC1C[C@@H]3O (stereo partly drawn) [(42), isopropyl 3β-(tris(3-aminopropyl)amine)ursodeoxycholate] | – | – | 60 µg/mL (≈ 99.2 µM) | 15 µg/mL (≈ 24.8 µM) | 30 µg/mL (≈ 49.6 µM) | – | 120 µg/mL (≈ 198 µM) | – | – | 4 µg/mL | –
3 | CC(C)OC(=O)CC[C@@H](C)[C@H]1CCC2C3C(CC[C@@]21C)[C@@]1(C)CC[C@H](NCCNCCNCCNCCNCCN)CC1C[C@@H]3O (stereo partly drawn) [(24), isopropyl 3β-(pentaethylenehexamine)ursodeoxycholate] | – | – | 130 µg/mL (≈ 200 µM) | 8 µg/mL (≈ 12.3 µM) | 32 µg/mL (≈ 49.3 µM) | – | 65 µg/mL (≈ 100 µM) | – | – | – | –
4 | COC(=O)CC[C@@H](C)[C@H]1CCC2C3C(CC[C@@]21C)[C@@]1(C)CC[C@H](NCCCN(CCCN)CCCN)CC1C[C@@H]3O (stereo partly drawn) [(52), methyl 3β-(tris(3-aminopropyl)amine)ursodeoxycholate] | 30 µg/mL (≈ 52 µM) | 30 µg/mL (≈ 52 µM) | 30 µg/mL (≈ 52 µM) | – | 14 µg/mL (≈ 24.3 µM) | – | 30 µg/mL (≈ 52 µM) | 14 µg/mL (≈ 24.3 µM) | 14 µg/mL (≈ 24.3 µM) | 7 µg/mL | –
5 | CC(C)OC(=O)CC[C@@H](C)[C@H]1CCC2C3CCC4C[C@@H](NCCCNCCCNCCCN)CC[C@]4(C)C3CC[C@@]21C (stereo partly drawn) [Compound (15), isopropyl 3β-norsperminolithocholate] | – | 14 µg/mL (≈ 23.8 µM) | 2 µg/mL (≈ 3.4 µM) | 1 µg/mL (≈ 1.7 µM) | 7 µg/mL (≈ 11.9 µM) | – | 7 µg/mL (≈ 11.9 µM) | 7 µg/mL (≈ 11.9 µM) | – | 2 µg/mL | 15 µg/mL (≈ 25.5 µM)
6 | COC(=O)CC[C@@H](C)[C@H]1CCC2C3CCC4C[C@@H](NCCCNCCCN)CC[C@]4(C)C3CC[C@@]21C (stereo partly drawn) [(18), methyl 3β-norspermidinolithocholate] | – | 32 µg/mL (≈ 63.5 µM) | 3 µg/mL (≈ 5.95 µM) | 0.7 µg/mL (≈ 1.39 µM) | 0.7 µg/mL (≈ 1.39 µM) | – | 3 µg/mL (≈ 5.95 µM) | – | – | 3 µg/mL | 80 µg/mL (≈ 159 µM)
7 | COC(=O)CC[C@@H](C)[C@H]1CCC2C3CCC4C[C@@H](NCCNCCNCCNCCNCCN)CC[C@]4(C)C3CC[C@@]21C (stereo partly drawn) [(25), methyl 3β-(pentaethylenehexamine)lithocholate] | 15 µg/mL (≈ 24.8 µM) | 30 µg/mL (≈ 49.6 µM) | 60 µg/mL (≈ 99.2 µM) | 4 µg/mL (≈ 6.61 µM) | 8 µg/mL (≈ 13.2 µM) | 76 µg/mL (≈ 126 µM) | 30 µg/mL (≈ 49.6 µM) | 8 µg/mL (≈ 13.2 µM) | 60 µg/mL (≈ 99.2 µM) | – | –
